Results published in patent US20050049198A1, “Method of modulating the activity of calcium channels in cardiac cells and reagents therefor” (priority 2001, published 2005).
“Also recorded” adds a separate entry of the source. Where no end group is shown, it is not given here. [ ]: non-standard residue; d: D form.

How the values were obtained:
[1] = test system: RyR channels of cardiac SR vesicles; experiment: Ca2+ release from cardiac SR vesicles; assay type: biochemical, sheep; details: for Ca2+-activated Ca2+ release / caffeine-activated Ca2+ release: 20 μM Ca2+ or 2 mM caffeine plus peptide; for initial rate of Ca2+ release, peptide alone: 30 μM and 50 μM peptide, no additional activating factors; for rate of Ca2+ release in the absence of activating Ca2+ or caffeine: high concentrations of >30 μM peptide
Method: Extravesicular [Ca^2+] was monitored at 710 nm using either a Cary 50 or Cary 100 spectrophotometer. […] Vesicles were loaded with Ca^2+ by 4 additions of 3 μl aliquots of 5 mM CaCl2, to a final concentration of 7.5 μM Ca^2+. Thapsigargin (200 nM) was then added to block the SR Ca^2+ ATPase. Finally the peptides were added either alone, or with 20 μM Ca^2+ or 2 mM caffeine. The rate of Ca^2+ release in the presence of thapsigargin was measured just before addition of the activating agents and initial rates of Ca^2+ release were measured immediately after addition of the activating agents. The specific blocker of RyR activity, […] ruthenium red, was then added to confirm that Ca^2+ release was through RyR channels. The Ca^+ ionophore A23187 (3 μg/ml) was added at the end of the experiment to determine the amount of Ca^2+ remaining in the SR vesicles. When Ca^2+ release was complete, the Ca^2+ transient following addition of the ionophore, was indicative of the fraction of vesicles containing Ca^2+ that could not be released through RyR channel (presumably vesicles from longitudinal SR that lack RyR channels). […] Experiments were repeated on vesicles isolated from 3 different sheep heart preparations.

[2] = test system: cardiac RyR2 channel; experiment: Single channel activity of cardiac RyR2 channels in lipid bilayers; assay type: biochemical, sheep; details: for effect on cardiac RyR2 channel activity: cis 10^−7M Ca2+
Method: SR vesicles were isolated from sheep heart as described by Layer et al. (1995, J. Membr. Biol. 147:7-22).
Experiments were carried out at 20° C. to 25° C., essentially according to Ahern et al. (1994, FEBS Lett. 352:369-374) and Layer et al. (1995, J. Membr. Biol. 147:7-22). Bilayers were formed from phosphatidylethanolamine, phosphatidylserine and phosphatidylcholine (5:3:2 w/w/w) (Avanti Polar Lipids, Alabaster, Ala.) across an aperture with a diameter of […] in the wall of a 1.0 ml Delrin cup (Cadillac Plastics, Australia). Terminal cisternae (TC) vesicles (final concentration, 10 μg/ml) and drugs were added to the cytoplasmic (i.e. cis) chamber. The bilayer potential was controlled, and single channel activity recorded, using an Axopatch 200A amplifier (Axon Instruments, Foster City, Calif.). For experimental purposes, the cis chamber was held at ground and the voltage of the lumen (i.e. trans) chamber controlled. Bilayer potential is expressed in the conventional way as Vcis−Vtrans, (i.e. Vcytoplasm−Vlumen).
Bilayers were formed as described above and vesicles were incorporated into the bilayer using a cis solution containing 230 mM Cs methanesulphonate (MS), 20 mM CsCl, 1 mM CaCl2 and 10 mM N-tris[hydroxymethyl]methyl-2-aminoethanesulfonic acid (TES, pH 7.4 with CsOH), and a trans solution containing 30 mM Cs MS, 20 mM CsCl, 1 mM CaCl2 and 10 mM TES (pH7.4).
To prevent incorporation of multiple channels into the bilayer, the cis solution was replaced by perfusion of the cis chamber when channel activity was observed. The cis perfusion solution was identical to the initial cis solution, except that the [Ca^2+] was 3×10^−7M, buffered using 1 mM BAPTA. CsMS (200 mM) was added to the trans chamber following channel incorporation to produce symmetrical solutions.
Bilayer potential was changed every 30 s, over 2 min following each addition of peptide to the cis chamber. Control activity was recorded for 2 min after addition of 200 mM CsMS to the trans chamber. Activity was then recorded for 2 min after cis addition of each aliquot of peptide (six different peptide concentrations were examined in each channel). Peptides were perfused out of the cis chamber, and the recovery recorded. Channels were finally exposed to 30 μM ruthenium red.
Currents were filtered at 1 kHz (8-pole low pass Bessel, −3 dB) and digitized at 5 kHz. Analysis of single channel records (using Channel 2, developed by P W Gage and M Smith) yielded channel open probability (Po), frequency of events (Fo), open times, closed times and mean open or closed times (To or Tc) as well as mean current (I′). The event discriminator was set above the baseline noise at ˜20% of the maximum current, rather than the usual 50%, and so openings to both sub conductance and maximum conductance levels were included in the analysis. Channel activity was analyzed over two 30 s periods of continuous activity at +40 mV and two 30 s periods of continuous activity at −40 mV.
The Ca^2+ concentration in the cis solution was either buffered at 100 nM or was adjusted to 100 μM by adding an CaCl2 to the cis solution in the absence of BAPTA.

[3] = target: cardiac SR (Homo sapiens, UniProt Q92736); details: cited from earlier work
Sequence of cardiac SR (Q92736 whole entry): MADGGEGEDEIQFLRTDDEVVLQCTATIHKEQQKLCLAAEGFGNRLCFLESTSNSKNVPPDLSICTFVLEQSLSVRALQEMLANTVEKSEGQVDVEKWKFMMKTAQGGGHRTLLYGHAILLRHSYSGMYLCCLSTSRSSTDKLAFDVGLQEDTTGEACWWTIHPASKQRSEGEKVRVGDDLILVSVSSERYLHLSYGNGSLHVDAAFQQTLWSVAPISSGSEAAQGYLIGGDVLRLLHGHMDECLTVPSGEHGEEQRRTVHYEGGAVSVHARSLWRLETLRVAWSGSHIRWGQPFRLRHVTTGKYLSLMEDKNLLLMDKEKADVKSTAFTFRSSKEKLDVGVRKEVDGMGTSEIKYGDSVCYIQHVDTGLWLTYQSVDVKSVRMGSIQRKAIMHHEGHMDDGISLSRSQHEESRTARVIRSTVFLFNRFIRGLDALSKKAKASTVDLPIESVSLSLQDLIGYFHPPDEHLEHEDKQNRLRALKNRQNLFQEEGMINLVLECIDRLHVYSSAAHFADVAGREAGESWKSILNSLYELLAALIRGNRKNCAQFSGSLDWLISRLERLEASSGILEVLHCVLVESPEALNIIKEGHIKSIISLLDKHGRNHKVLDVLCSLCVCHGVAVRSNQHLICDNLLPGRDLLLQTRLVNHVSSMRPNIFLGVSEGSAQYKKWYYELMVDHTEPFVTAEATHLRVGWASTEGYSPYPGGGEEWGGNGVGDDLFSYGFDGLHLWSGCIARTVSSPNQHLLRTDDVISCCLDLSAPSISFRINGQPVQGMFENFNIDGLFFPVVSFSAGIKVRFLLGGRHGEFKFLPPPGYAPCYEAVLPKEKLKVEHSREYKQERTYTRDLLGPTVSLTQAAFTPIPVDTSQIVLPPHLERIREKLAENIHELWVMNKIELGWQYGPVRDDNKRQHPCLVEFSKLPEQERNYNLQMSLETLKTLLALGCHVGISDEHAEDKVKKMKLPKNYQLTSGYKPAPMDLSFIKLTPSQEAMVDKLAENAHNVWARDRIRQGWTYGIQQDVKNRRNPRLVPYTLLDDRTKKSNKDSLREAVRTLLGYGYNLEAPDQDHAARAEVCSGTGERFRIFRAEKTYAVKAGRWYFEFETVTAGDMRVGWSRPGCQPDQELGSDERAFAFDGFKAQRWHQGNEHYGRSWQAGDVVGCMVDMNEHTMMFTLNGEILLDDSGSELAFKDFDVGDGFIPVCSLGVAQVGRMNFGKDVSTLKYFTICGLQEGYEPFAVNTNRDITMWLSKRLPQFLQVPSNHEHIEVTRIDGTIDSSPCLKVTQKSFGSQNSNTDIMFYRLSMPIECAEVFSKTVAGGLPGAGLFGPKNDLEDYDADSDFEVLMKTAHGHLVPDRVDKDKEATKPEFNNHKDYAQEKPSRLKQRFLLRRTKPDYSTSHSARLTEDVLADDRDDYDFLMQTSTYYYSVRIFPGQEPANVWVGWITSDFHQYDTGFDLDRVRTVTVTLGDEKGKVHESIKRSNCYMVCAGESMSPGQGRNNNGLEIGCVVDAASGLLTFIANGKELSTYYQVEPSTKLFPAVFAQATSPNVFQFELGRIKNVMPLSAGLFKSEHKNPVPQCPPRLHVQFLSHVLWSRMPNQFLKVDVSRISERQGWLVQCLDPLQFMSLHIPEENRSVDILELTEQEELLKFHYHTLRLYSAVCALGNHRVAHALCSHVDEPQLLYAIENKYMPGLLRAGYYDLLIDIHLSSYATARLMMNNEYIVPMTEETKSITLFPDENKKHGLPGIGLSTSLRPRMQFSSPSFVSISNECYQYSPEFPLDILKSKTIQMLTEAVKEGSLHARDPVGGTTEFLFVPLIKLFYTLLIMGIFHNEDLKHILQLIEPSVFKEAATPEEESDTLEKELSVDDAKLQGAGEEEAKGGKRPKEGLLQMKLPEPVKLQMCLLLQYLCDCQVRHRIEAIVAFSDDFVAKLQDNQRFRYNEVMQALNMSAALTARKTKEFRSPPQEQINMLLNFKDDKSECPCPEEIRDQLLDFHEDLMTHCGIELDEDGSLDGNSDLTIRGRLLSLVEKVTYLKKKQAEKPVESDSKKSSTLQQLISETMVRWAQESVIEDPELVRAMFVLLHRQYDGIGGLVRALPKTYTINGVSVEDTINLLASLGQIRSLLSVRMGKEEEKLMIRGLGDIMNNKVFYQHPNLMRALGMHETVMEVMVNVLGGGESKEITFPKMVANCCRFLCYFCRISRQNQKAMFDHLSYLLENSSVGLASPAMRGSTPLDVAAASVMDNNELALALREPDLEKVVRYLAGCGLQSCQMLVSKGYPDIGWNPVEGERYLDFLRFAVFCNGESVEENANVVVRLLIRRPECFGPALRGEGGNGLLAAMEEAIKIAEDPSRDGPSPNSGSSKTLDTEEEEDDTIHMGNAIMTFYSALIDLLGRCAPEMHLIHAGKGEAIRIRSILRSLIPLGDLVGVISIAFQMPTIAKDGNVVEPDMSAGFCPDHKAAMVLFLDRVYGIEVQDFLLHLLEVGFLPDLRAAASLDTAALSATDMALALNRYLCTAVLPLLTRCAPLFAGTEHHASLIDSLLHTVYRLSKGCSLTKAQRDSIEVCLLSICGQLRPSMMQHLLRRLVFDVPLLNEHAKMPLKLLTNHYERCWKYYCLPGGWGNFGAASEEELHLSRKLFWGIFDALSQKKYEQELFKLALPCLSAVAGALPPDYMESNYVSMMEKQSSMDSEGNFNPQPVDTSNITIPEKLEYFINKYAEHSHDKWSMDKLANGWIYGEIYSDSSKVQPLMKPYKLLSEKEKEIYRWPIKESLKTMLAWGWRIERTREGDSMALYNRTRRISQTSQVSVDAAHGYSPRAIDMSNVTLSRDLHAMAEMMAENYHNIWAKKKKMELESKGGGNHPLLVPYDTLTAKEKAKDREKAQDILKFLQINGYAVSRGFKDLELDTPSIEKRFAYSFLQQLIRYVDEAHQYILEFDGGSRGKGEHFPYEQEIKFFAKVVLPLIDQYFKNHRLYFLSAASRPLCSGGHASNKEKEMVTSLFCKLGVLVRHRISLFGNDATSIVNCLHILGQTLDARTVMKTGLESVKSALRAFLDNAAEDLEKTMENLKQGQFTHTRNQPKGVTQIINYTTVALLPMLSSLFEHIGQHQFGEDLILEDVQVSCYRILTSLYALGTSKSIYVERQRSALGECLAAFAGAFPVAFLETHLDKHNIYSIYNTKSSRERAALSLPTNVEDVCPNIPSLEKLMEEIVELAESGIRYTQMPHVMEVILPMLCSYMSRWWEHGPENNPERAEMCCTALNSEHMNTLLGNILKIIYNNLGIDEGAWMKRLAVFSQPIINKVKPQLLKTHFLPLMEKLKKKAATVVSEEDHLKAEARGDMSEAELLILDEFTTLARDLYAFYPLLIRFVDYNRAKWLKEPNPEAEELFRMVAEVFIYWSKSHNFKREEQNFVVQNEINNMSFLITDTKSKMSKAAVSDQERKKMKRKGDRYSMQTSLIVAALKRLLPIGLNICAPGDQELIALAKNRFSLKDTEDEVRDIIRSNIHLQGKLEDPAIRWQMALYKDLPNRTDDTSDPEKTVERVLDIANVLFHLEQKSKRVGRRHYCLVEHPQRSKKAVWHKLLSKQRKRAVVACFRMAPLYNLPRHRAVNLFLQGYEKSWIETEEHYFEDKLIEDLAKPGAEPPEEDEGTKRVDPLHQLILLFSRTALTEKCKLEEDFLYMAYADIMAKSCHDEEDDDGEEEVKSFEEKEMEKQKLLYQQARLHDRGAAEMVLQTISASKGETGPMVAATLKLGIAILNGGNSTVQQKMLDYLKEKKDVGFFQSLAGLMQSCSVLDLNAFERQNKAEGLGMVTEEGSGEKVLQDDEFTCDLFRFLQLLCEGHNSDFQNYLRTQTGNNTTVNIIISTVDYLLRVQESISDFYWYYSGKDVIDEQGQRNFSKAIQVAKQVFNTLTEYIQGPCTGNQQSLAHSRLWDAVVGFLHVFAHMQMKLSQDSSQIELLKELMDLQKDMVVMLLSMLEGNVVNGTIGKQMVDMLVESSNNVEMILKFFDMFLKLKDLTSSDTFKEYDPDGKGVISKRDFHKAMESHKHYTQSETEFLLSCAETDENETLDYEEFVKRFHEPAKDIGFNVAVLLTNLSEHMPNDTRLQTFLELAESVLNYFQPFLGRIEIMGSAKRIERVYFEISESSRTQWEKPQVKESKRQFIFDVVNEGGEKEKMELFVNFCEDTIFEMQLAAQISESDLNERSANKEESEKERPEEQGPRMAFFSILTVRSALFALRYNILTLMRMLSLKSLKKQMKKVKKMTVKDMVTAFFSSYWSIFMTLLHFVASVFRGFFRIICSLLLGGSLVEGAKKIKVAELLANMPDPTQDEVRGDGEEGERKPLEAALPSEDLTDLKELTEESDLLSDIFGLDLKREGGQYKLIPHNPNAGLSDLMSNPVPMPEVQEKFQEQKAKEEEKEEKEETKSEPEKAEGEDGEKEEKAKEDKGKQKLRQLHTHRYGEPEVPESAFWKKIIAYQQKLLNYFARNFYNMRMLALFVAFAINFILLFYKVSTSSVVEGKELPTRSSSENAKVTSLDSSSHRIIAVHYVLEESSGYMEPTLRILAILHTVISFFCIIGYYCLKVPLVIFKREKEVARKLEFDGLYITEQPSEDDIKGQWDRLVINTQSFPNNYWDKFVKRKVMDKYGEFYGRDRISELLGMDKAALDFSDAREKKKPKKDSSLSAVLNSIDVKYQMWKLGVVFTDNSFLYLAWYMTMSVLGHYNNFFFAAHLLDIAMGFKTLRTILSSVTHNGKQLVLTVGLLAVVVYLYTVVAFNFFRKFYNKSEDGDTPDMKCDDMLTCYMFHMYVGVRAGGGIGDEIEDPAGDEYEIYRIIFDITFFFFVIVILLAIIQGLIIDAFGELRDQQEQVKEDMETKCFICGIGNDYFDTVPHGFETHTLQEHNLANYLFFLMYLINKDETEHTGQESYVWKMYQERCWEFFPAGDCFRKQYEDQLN

[4] = target: cardiac RyR2 channels (Homo sapiens, UniProt Q92736); details: cited from earlier work
Sequence of cardiac RyR2 channels (Q92736 whole entry): as above

[5] = target: RyR2 (Homo sapiens, UniProt Q92736); details: cited from earlier work
Sequence of RyR2 (Q92736 whole entry, species assumed): as the sequence (Q92736 whole entry) above

[6] = target: cardiac ryanodine receptor (RyR2) calcium channel from sheep heart SR vesicles (sheep, UniProt A0ACI6Q5I6 1-4956); experiment: cell-based or functional assay

Cn1c(=O)c2c(ncn2C)n(C)c1=O [caffeine, reference compound]
initial rate of Ca2+ release ([1]; 2 mM caffeine, no peptide): 10 μmoles of Ca^2+ per mg of SR protein per min

N.N.N.N.N.N.N.N.N.N.N.N.N.N.[Cl-].[Cl-].[Cl-].[Cl-].[Cl-].[Cl-].[O-2].[O-2].[Ru+3].[Ru+3].[Ru+4] [ruthenium red, reference compound]
effect on RyR channel ([2]; 30 μM, end of experiment): block the channel | effect on Ca2+ release ([1]; added after activating agents): terminated

GLPDKTEEEKSVMAKKLEQK [peptide NB, non-specific peptide; the N-terminal portion of the B segment of the II-III loop, reference compound]
channel activity ([2]; 1 μM or 10 μM cis peptide, +40 mV or −40 mV): no modified channel activity

TRKSRLARGQKAKAKSEMRE [Peptide A1S, reference compound]
bilayers in which channel activity was reduced ([2]; 1 μM or 10 μM cis peptide): 2 out of 2 | cardiac RyR2 channel activity ([2]; 1 μM or 10 μM cis peptide): reduced cardiac RyR2 channel activity

TSAQKAKAEERKRRKMARDGL (TSAQKAKAEERKRRKMA[dR]GL) [SEQ ID NO: 10]
Ca2+-activated Ca2+ release / caffeine-activated Ca2+ release [1]: also enhanced | initial rate of Ca2+ release, peptide alone [1]: small increase | rate of Ca2+ release in the absence of activating Ca2+ or caffeine [1]: marginally enhanced

TSAQKAKAEERKRRKMARGL [SEQ ID NO: 8]
initial rate of Ca2+ release, peptide alone [1]: small increase

TSAQKAKAEERKRRKMSRDGL (TSAQKAKAEERKRRKMS[dR]GL) [SEQ ID NO: 9]
channel activity (relative mean current) ([2]; 100 nM cis Ca2+): clearly enhanced | channel activity ([2]; 100 nM cis Ca2+, 10 nM peptide): significant increase in activity | relative mean current at higher peptide concentrations ([2]; 100 nM cis Ca2+, 1 and 10 μM peptide, +40 mV): fall | peptide concentration at which depression was seen ([2]; 100 nM cis Ca2+, +40 mV): > 100 nM | increase in relative mean current ([2]; 100 nM cis Ca2+, both positive and negative potentials): 10-20 fold | channel activity (relative mean current) ([2]; 100 μM cis Ca2+): failed to activate channels; also recorded: clearly depressed | peptide concentration of maximum effect (depression) ([2]; 100 μM cis Ca2+): 100 nM | voltage dependence of reduction in channel activity ([2]; 100 μM cis Ca2+): greater at +40 mV than −40 mV; also recorded: significantly greater at +40 mV | frequency of events ([2]; +40 mV and −40 mV): corresponding increase | effect at high peptide concentrations ([2]; +40 mV, voltage- and Ca2+-dependent): blocked the channel pore | peptide concentrations enhancing cardiac RyR activity in lipid bilayer ([2]; low concentrations): 1 to 10 nM | Ca2+-activated Ca2+ release / caffeine-activated Ca2+ release [1]: also enhanced | initial rate of Ca2+ release, peptide alone [1]: small increase | rate of Ca2+ release in the absence of activating Ca2+ or caffeine [1]: marginally enhanced

TSAQKAKAEERKRRKMSRGL [SEQ ID NO: 2, 20-mer peptide (Thr671 to Leu690) of the II-III cytoplasmic loop of human skeletal muscle DHPR]
induction of Ca2+ release from cardiac SR [3]: not to induce | bilayer samples with similar activation and inhibition [2]: 8 out of 8 | lowest peptide concentration at which activation of cardiac RyR2 was observed [2]: 1 nM | peptide concentration above which channel opening began to decline ([2]; +40 mV): above 100 nM | frequency of opening ([2]; +40 mV and −40 mV, after peptide addition to cis chamber): higher frequency of opening | normalized mean current ([2]; +40 mV, 10 nM peptide): doubled | channel activity ([2]; +40 mV, 65 nM peptide): increased; also recorded: mostly in the open configuration | channel openings ([2]; +40 mV, 10 μM peptide): only a few brief channel openings | channel configuration ([2]; +40 mV, 32.5 μM peptide): mostly in the closed configuration | normalized mean current at higher peptide concentrations ([2]; +40 mV, between about 10 μM and 50 μM peptide): fell dramatically | effect on cardiac RyR2 channel activity ([2]; +40 mV): increases and then decreases the activity | effect on cardiac RyR2 channel activity ([2]; +40 mV, listed as 20-mer peptide): strong inhibition | duration of channel openings ([2]; −40 mV, 10^−7M cis Ca, versus absence of peptide): prolonged channel openings | effect on cardiac RyR2 channel activity ([2]; −40 mV): increases the activity | effect on cardiac RyR2 channel activity ([2]; −40 mV, listed as 20-mer peptide): significant activation | channel open probability (Po) ([2]; −40 mV, particularly at 65 nM peptide): high open probability | RyR2 channel activity ([2]; −40 mV, peptide increased to 6.5 μM): fell slightly | channel openings ([2]; −40 mV, within 10 s of adding 65 nM peptide): channel openings increased | initial rate of Ca2+ release, peptide alone [1]: small increase | enhancement of [3H]ryanodine binding to cardiac RyR2 channels [4]: not to induce Ca^2+ release from cardiac SR, or to enhance [^3H]ryanodine binding | binding to RyR2 [5]: binds

B1: 20-mer peptide of the II-III cytoplasmic loop of skeletal DHPR alpha-1 subunit (Thr671 to Leu690) (peptide)
peptide: TSAQKAKAEERKRRKMSRGL
mean current (I'p/I'c) at 10 nM peptide, -40 mV or +40 mV [6]: ~2 fold | mean current at -40 mV (increase in 50 µM peptide) [6]: 4 fold

B2: SEQ ID NO: 9 peptide (20-mer of SEQ ID NO: 2 with Arg688 replaced by the D isomer of arginine) (peptide)
peptide: TSAQKAKAEERKRRKMS[dR]GL
mean closed time at +40 mV (decrease) [6]: 80 fold | mean closed time at -40 mV (decrease) [6]: 170 fold | mean open time at both potentials (increase) [6]: 8 fold | open probability at +40 mV (increase) [6]: ~10 fold | open probability at -40 mV (increase) [6]: ~50 fold
